Assay results: patent US11026944B2, “Compositions and methods for treating insomnia” (Eisai R&D Management Co., Ltd., priority 2014, dated 2021)

How the values were obtained:
[1] = tested on: subjects with primary insomnia; test: 001 Study Part B: polysomnography (LPS, WASO, SE); type: in vivo, human; details: zolpidem 10 mg single evening dose
Text: For Part B, 58 otherwise healthy subjects with primary insomnia were randomized across three cohorts, and stratified by gender. Part B also included an active control (zolpidem) and matching placebo. In each cohort, there were approximately 12 subjects in the compound A/zolpidem-matched placebo group, approximately four subjects in the zolpidem/compound A-matched placebo group, and approximately four subjects in the compound A-matched placebo/zolpidem-matched placebo group. Part B dosing occurred in the evening, 30 minutes prior to the sleep period. The starting dose for Part B was 3 dose levels that determined to be safe and well tolerated in Part A. Subsequent dose levels in Part B were determined based on the PD results of the first cohort in Part B and PD and safety results from at least 3 completed higher dose cohorts in Part A. Each cohort in Part B was divided into at least two groups, with dosing of each group staggered by a minimum of 2 days.
(§1) After the initial Screening visit, eligible subjects were scheduled to return to the clinic for 2 days during the Screening Period to conduct screening/baseline PSGs. These two days occurred at least 3 days after the initial Screening visit and within a window from Day-7 to Day-6 (±2 days). The first PSG was used to screen for sleep apnea and periodic limb movements in sleep (PLMS) and serve as the first baseline PSG. The second PSG was used as the second baseline PSG. Specific PSG variables were used to determine whether subjects met PSG inclusion criteria, and the average of PSG variables from these two PSGs was used as Baseline for this PD measure. Subjects who had met PSG inclusion criteria returned to the clinic on Day-1 for additional baseline procedures and randomization. Subjects were not allowed to nap on Day 1. On the evening of Day 1, after fasting a minimum of 3 hours, study drug was administered 30 minutes prior to the subject's habitual bedtime (lights-out), as calculated from the sleep diary for the first PSG during the Screening Period. PK blood samples were collected at prespecified timepoints, and PD assessments were performed. PSG was recorded on Day 1, postdose. Subjects were administered additional PD assessments each morning on Day 1 through Day 6. These assessments included the KSS, DSST, and PVT, in order to assess daytime sleepiness, level of alertness, and ability to concentrate. The KSS and DSST were also administered 5 minutes predose and 25 minutes postdose on Day 1, just prior to lights-out. Waketime Questionnaires were administered after the PD assessments within 15 minutes of lights-on, on Day 1 to Day 6. Time and duration of naps was recorded on Day 2.
In addition, PSG was performed during the Screening Period at Days-7 and -6 (±2 days), and postdose on Day 1. An 8-hour diagnostic PSG consisting of electroencephalogram (EEG), electrooculogram (EOG), electromyogram (EMG), ECGs, leg electrodes, and measures of respiratory function (airflow, respiratory effort, and oxygen saturation) were performed starting at the subject's habitual bedtime as determined from the sleep diary for the 3 nights immediately prior to the first PSG on Day-7 (±2 days). PSG variables from this night were used to screen for sleep apnea and PLMS. On Day-6 (±2) and postdose on Day1, standard PSGs (i.e., not including leg electrodes or measures of respiratory function other than oxygen saturation) were performed. Specified PSG variables from these two PSGs conducted during the Screening Period were used to determine whether subjects met PSG inclusion criteria. The average of PSG variables from these two PSGs conducted during the Screening Period were used as baseline PSG values. The key PD parameters such as PSG LPS, TST, SE, and WASO have been obtained from all PSG recordings.

[2] = tested on: subjects with primary insomnia; test: 001 Study Part B: next day KSS, DSST, PVT; type: in vivo, human; details: any dose of compound A (2.5, 10, 25 mg); zolpidem 10 mg
Text: as §1
Part B subjects were administered the KSS, DSST, and PVT within 15 minutes after lights-on specifically in that order, on each morning from Day 1 through Day 6, followed by the Waketime Questionnaire. The KSS and DSST were also administered 5 minutes predose and 25 minutes postdose on Day 1 (just prior to lights-out).

For `Cc1ccc(-c2nc3ccc(C)cn3c2CC(=O)N(C)C)cc1` [zolpidem, reference compound], the “change from Baseline in SE” value [1] was 13% and the “next day effects on KSS, DSST, or PVT” value [2] was “no clinically significant next day effects”.
